According to the CheMixHub viscosity set:

Experiment: xn = mol fraction of the nth substance listed

CS(C)=O + CCO
Details | viscosity [mPa·s]
293.15 K, 100 kPa, x2 = 0.08 | 2.021
293.15 K, 100 kPa, x2 = 0.16 | 1.873
293.15 K, 100 kPa, x2 = 0.23 | 1.756
293.15 K, 100 kPa, x2 = 0.3 | 1.666
293.15 K, 100 kPa, x2 = 0.36 | 1.572
298.15 K, 100 kPa, x2 = 0.08 | 1.828
298.15 K, 100 kPa, x2 = 0.16 | 1.701
298.15 K, 100 kPa, x2 = 0.23 | 1.598
298.15 K, 100 kPa, x2 = 0.3 | 1.517
298.15 K, 100 kPa, x2 = 0.36 | 1.436
298.15 K, 101 kPa, x1 = 0.061 | 1.182
298.15 K, 101 kPa, x1 = 0.2 | 1.291
298.15 K, 101 kPa, x1 = 0.37 | 1.466
298.15 K, 101.3 kPa, x1 = 0.0616 | 1.015
298.15 K, 101.3 kPa, x1 = 0.1286 | 1.021
298.15 K, 101.3 kPa, x1 = 0.2019 | 1.022
298.15 K, 101.3 kPa, x1 = 0.2801 | 1.056
298.15 K, 101.3 kPa, x1 = 0.3708 | 1.114
298.15 K, 101.3 kPa, x1 = 0.4693 | 1.187
298.15 K, 101.3 kPa, x1 = 0.5814 | 1.298
298.15 K, 101.3 kPa, x1 = 0.7023 | 1.454
298.15 K, 101.3 kPa, x1 = 0.7609 | 1.538
298.15 K, 101.3 kPa, x1 = 0.8414 | 1.657
298.15 K, 101.3 kPa, x1 = 0.933 | 1.851
298.15 K, 101.31 kPa, x1 = 0.1026 | 1.034
298.15 K, 101.31 kPa, x1 = 0.1971 | 1.029
298.15 K, 101.31 kPa, x1 = 0.2892 | 1.061
298.15 K, 101.31 kPa, x1 = 0.4043 | 1.137
298.15 K, 101.31 kPa, x1 = 0.5029 | 1.234
298.15 K, 101.31 kPa, x1 = 0.62 | 1.352
298.15 K, 101.31 kPa, x1 = 0.7117 | 1.491
298.15 K, 101.31 kPa, x1 = 0.8036 | 1.634
298.15 K, 101.31 kPa, x1 = 0.9017 | 1.807
299 K, 101 kPa, x1 = 0.0519 | 1.711
299 K, 101 kPa, x1 = 0.1593 | 1.696
299 K, 101 kPa, x1 = 0.3301 | 1.895
299 K, 101 kPa, x1 = 0.451 | 2.099
299 K, 101 kPa, x1 = 0.5779 | 2.34
299 K, 101 kPa, x1 = 0.7807 | 2.572
303.15 K, 100 kPa, x2 = 0.16 | 1.552
303.15 K, 100 kPa, x2 = 0.3 | 1.39
303.15 K, 100 kPa, x2 = 0.36 | 1.317
303.15 K, 101 kPa, x1 = 0.2 | 1.191
303.15 K, 101 kPa, x1 = 0.2004 | 1.205
303.15 K, 101 kPa, x1 = 0.37 | 1.366
303.15 K, 101.3 kPa, x1 = 0.0616 | 0.966
303.15 K, 101.3 kPa, x1 = 0.1286 | 0.932
303.15 K, 101.3 kPa, x1 = 0.2019 | 0.884
303.15 K, 101.3 kPa, x1 = 0.2801 | 0.904
303.15 K, 101.3 kPa, x1 = 0.3708 | 0.938
303.15 K, 101.3 kPa, x1 = 0.4693 | 1.064
303.15 K, 101.3 kPa, x1 = 0.5814 | 1.201
303.15 K, 101.3 kPa, x1 = 0.7023 | 1.354
303.15 K, 101.3 kPa, x1 = 0.7609 | 1.481
303.15 K, 101.3 kPa, x1 = 0.933 | 1.685
308.15 K, 100 kPa, x2 = 0.16 | 1.426
308.15 K, 100 kPa, x2 = 0.3 | 1.28
308.15 K, 100 kPa, x2 = 0.36 | 1.213
308.15 K, 101 kPa, x1 = 0.061 | 1.002
308.15 K, 101 kPa, x1 = 0.2 | 1.091
308.15 K, 101 kPa, x1 = 0.37 | 1.266
308.15 K, 101.31 kPa, x1 = 0.1026 | 0.882
308.15 K, 101.31 kPa, x1 = 0.1971 | 0.893
308.15 K, 101.31 kPa, x1 = 0.2892 | 0.916
308.15 K, 101.31 kPa, x1 = 0.4043 | 0.981
308.15 K, 101.31 kPa, x1 = 0.5029 | 1.056
308.15 K, 101.31 kPa, x1 = 0.62 | 1.159
308.15 K, 101.31 kPa, x1 = 0.7117 | 1.26
308.15 K, 101.31 kPa, x1 = 0.8036 | 1.375
308.15 K, 101.31 kPa, x1 = 0.9017 | 1.511
313.15 K, 100 kPa, x2 = 0.08 | 1.402
313.15 K, 100 kPa, x2 = 0.16 | 1.312
313.15 K, 100 kPa, x2 = 0.23 | 1.237
313.15 K, 100 kPa, x2 = 0.3 | 1.181
313.15 K, 100 kPa, x2 = 0.36 | 1.121
318.15 K, 101.31 kPa, x1 = 0.1026 | 0.745
318.15 K, 101.31 kPa, x1 = 0.1971 | 0.753
318.15 K, 101.31 kPa, x1 = 0.2892 | 0.782
318.15 K, 101.31 kPa, x1 = 0.4043 | 0.835
318.15 K, 101.31 kPa, x1 = 0.5029 | 0.908
318.15 K, 101.31 kPa, x1 = 0.62 | 0.994
318.15 K, 101.31 kPa, x1 = 0.7117 | 1.067
318.15 K, 101.31 kPa, x1 = 0.8036 | 1.171
318.15 K, 101.31 kPa, x1 = 0.9017 | 1.28
323.15 K, 101 kPa, x1 = 0.8011 | 1.125

NS(=O)(=O)O + CC(=O)N(C)C
298 K, 101.33 kPa
Details | viscosity [mPa·s]
x1 = 0.02772 | 1.19
x1 = 0.05584 | 1.637
x1 = 0.08283 | 2.268
x1 = 0.1075 | 3.241
x1 = 0.33 | 1.147
x1 = 0.67 | 1.499

CCN(CC)S(C)(=O)=O + CCCCO
303.15 K, 101.33 kPa
Details | viscosity [mPa·s]
x1 = 0.0631 | 20450
x1 = 0.1404 | 19420
x1 = 0.2197 | 19180
x1 = 0.2937 | 19420
x1 = 0.3626 | 19850
x1 = 0.4515 | 20780
x1 = 0.5227 | 21750
x1 = 0.6053 | 23400
x1 = 0.6908 | 25500
x1 = 0.7579 | 27420
x1 = 0.8437 | 30890
x1 = 0.9281 | 35520

CCN(CC)S(C)(=O)=O + CCO
303.15 K, 101.33 kPa
Details | viscosity [mPa·s]
x1 = 0.0656 | 100000
x1 = 0.1402 | 106700
x1 = 0.2228 | 117500
x1 = 0.2849 | 127400
x1 = 0.3659 | 142400
x1 = 0.4606 | 163500
x1 = 0.5135 | 176500
x1 = 0.5968 | 200200
x1 = 0.6622 | 221700
x1 = 0.743 | 253300
x1 = 0.8454 | 302600
x1 = 0.9395 | 359700

CCOC(=O)C(C)O (stereo not drawn) + Cc1ccccc1
101 kPa
Details | viscosity [mPa·s]
298.15 K, x1 = 0.7999 | 1.695
303.15 K, x1 = 0.3 | 0.7345
303.15 K, x1 = 0.7 | 1.295
313.15 K, x1 = 0.4 | 0.7225

CS(C)=O + CC(C)O
viscosity [mPa·s]
Details | 298.15 K | 303.15 K | 308.15 K | 318.15 K
101 kPa, x1 = 0.0385 | 1.91 | 1.59 | 1.46 | –
101 kPa, x1 = 0.0787 | 1.77 | 1.49 | 1.36 | –
101 kPa, x1 = 0.1001 | – | 1.525 | – | –
101 kPa, x1 = 0.2059 | 1.51 | – | – | –
101 kPa, x1 = 0.2479 | 1.45 | 1.32 | 1.2 | –
101 kPa, x1 = 0.339 | 1.42 | 1.29 | – | –
101 kPa, x1 = 0.4639 | 1.45 | 1.32 | – | –
101 kPa, x1 = 0.5357 | 1.48 | 1.35 | 1.24 | –
101 kPa, x1 = 0.6422 | 1.55 | 1.42 | 1.32 | –
101 kPa, x1 = 0.7547 | 1.66 | 1.51 | 1.39 | –
101 kPa, x1 = 0.8134 | 1.72 | 1.57 | 1.45 | –
101 kPa, x1 = 0.8738 | 1.8 | 1.64 | 1.5 | –
101 kPa, x1 = 0.9005 | – | – | – | 1.285
101 kPa, x1 = 0.936 | 1.88 | 1.72 | – | –
101.3 kPa, x1 = 0.0788 | 1.742 | 1.576 | – | –
101.3 kPa, x1 = 0.1608 | 1.589 | 1.447 | – | –
101.3 kPa, x1 = 0.2475 | 1.473 | 1.358 | – | –
101.3 kPa, x1 = 0.3389 | 1.475 | 1.319 | – | –
101.3 kPa, x1 = 0.4347 | 1.451 | – | – | –
101.3 kPa, x1 = 0.5347 | 1.501 | 1.346 | – | –
101.3 kPa, x1 = 0.6423 | 1.597 | 1.406 | – | –
101.3 kPa, x1 = 0.7546 | 1.679 | 1.505 | – | –
101.3 kPa, x1 = 0.8737 | 1.828 | 1.622 | – | –

CCC(N)=O + c1ccncc1
298.15 K, 101 kPa
Details | viscosity [mPa·s]
x1 = 0.0852 | 1.047
x1 = 0.1462 | 1.208
x1 = 0.2521 | 1.615

O=C(O)C=Cc1ccccc1 + CO
viscosity [mPa·s]
Details | 308.15 K | 313.15 K | 318.15 K | 323.15 K
101 kPa, x1 = 0.075 | 0.8921 | – | – | 0.7246
101 kPa, x1 = 0.084 | 0.9758 | – | – | 0.7679
101 kPa, x1 = 0.0887 | 1.014 | – | – | 0.797
101 kPa, x1 = 0.0981 | 1.092 | – | – | 0.846
101.33 kPa, x1 = 0.075 | 0.891 | 0.8453 | 0.7855 | 0.7246
101.33 kPa, x1 = 0.0981 | 1.092 | 1.003 | 0.9163 | 0.846
